From paper PMC7317212 (Chemmedchem, 2020)

Assays:
mGAT4 = target: T1, mGAT4 (Mus musculus, UniProt P31650); experiment: [^3H]GABA uptake assay, HEK293 cells expressing mGAT4; type: cell-based; settings: for IC50: [^3H]GABA uptake, pIC50±SEM; for remaining activity at 100 µM: HEK293
T1 construct: expressed in transfected cells; host or cells: HEK293
T1 sequence (P31650 1-627): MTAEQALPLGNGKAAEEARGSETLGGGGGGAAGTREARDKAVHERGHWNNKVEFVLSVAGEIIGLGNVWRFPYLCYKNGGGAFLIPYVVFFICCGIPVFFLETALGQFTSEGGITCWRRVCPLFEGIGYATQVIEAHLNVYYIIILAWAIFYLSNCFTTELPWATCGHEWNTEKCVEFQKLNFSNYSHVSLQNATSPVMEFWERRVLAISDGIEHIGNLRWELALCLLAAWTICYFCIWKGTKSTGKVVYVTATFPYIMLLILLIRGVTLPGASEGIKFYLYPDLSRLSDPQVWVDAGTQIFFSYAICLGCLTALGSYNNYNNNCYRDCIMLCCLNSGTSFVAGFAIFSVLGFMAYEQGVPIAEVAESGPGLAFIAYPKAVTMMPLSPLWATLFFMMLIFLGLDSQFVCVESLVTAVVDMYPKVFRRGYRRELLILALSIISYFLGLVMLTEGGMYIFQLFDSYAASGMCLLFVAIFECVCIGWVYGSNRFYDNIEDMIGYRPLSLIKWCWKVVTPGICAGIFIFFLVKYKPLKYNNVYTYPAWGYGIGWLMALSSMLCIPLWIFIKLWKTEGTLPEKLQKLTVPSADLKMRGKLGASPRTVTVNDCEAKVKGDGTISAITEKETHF
Experimental: (§1) For compounds with pIC50 ([^3H]GABA uptake assay) or pK i (MS Binding Assays) values close to or above 5.0, these experiments were repeated twice and SEM have been calculated.
(§2) [^3H]GABA uptake assays: The [^3H]GABA uptake assays were performed according to Kragler et al.33 Cells were grown in 150 cm^2 plates to a confluence of 70–90 % up to passage 25. After detachment the cells were centrifuged 5 min at 500×g, washed for three times in phosphate buffered saline and, finally, resuspended in Krebs buffer (2.5 mM CaCl2, 1.2 mM MgSO4, 1.2 mM KH2PO4, 4.7 mM KCl, 11 mM glucose, 25 mM Tris, 119 mM NaCl, pH 7.2). The uptake assays were performed with aliquots of the resulting cell suspension (about 100000–200000 cells per well) in a total volume of 250 μl in 96 well 2.2 mL deep well plates. The cells were equilibrated for 25 min in Krebs buffer in the presence of the test compound at 37 °C in a gently shaking water bath. […] After addition of 25 μl of a solution containing [^3H]GABA (2.22 TBq/mmol, ARC, St Louis, MO, USA) and unlabeled GABA in Krebs (final concentration 8 nM [^3H]GABA and 32 nM unlabeled GABA for mGAT1, mGAT3, mGAT4 and 20 nM [^3H]GABA and 20 nM unlabeled GABA for mGAT2) the cells were incubated for further 4 min (mGAT1, mGAT3, mGAT4) or 10 minutes (mGAT2), respectively. The incubation was stopped by filtration through Sartorius MGC micro glass fiber filters pre‐soaked for 1 h in 0.9 % NaCl by means of a Brandell MWXR‐96TI cell harvester (Brandell, Gaithersburg, MD, USA) under reduced pressure. The filters were rinsed two times with cold 0.9 % NaCl and subsequently transferred to 96 well sample plates (Perkin Elmer LAS, Boston, MA, USA). After addition of 200 μl Rotiszint Eco Plus (Roth, Karlsruhe, Germany) per well the radioactivity was determined in a microbeta liquid scintillation counter (Perkin Elmer LAS, Boston, MA, USA). Non‐specific uptake was determined in presence of 10 mM GABA for mGAT1, mGAT3 and mGAT4 or 100 mM GABA for mGAT2, respectively. The results are expressed as means±S.E.M. of at least three separate experiments, each carried out in triplicate.

mGAT1 [1] = target: T2, mGAT1 (Mus musculus, UniProt P31648); experiment: MS Binding Assay with NO711 as native MS marker; settings: in presence of 100 μM compound; read-out: remaining specific NO711 binding (mGAT1)
T2 construct: expressed in transfected cells; host or cells: HEK293
Experimental: as §1
MS Binding Assays: The MS Binding Assays were performed with mGAT1 membrane preparations obtained from a stably mGAT1 expressing HEK293 cell line and NO711 as unlabeled marker in competitive binding experiments as previously described in detail.34 In short, test compounds were investigated at 7 concentrations in presence of 10 nM NO 711 in competition experiments. Non specific binding was defined as binding remaining in the presence of 100 mM GABA. Incubation was terminated by transfer of 200 μL per well onto a 96‐well filter plate (Acroprep, glass fibre, 1.0 μm, 350 μL, Pall, Dreieich, Germany) with a 12 channel pipette. After rapid vacuum‐filtration the filters were washed with ice cold 0.9 % NaCl (5×150 μL) and dried at 50 °C for 60 min. Afterwards, the filters were eluted with 100 μL methanol containing [^2H10]NO711 (1.4 nM) as internal standard per well into a deep‐well plate by application of vacuum. This step was repeated twice resulting in a total elution volume of 300 μL. Finally, a volume of 130 μL ammonium formate buffer (10 mM, pH 7.0) was added per well and the generated samples analyzed by LC‐ESI‐MS/MS using a API 3200 as described in detail previously.40

mGAT1 [2] = target: T2, mGAT1; experiment: [^3H]GABA uptake assay, HEK293 cells expressing mGAT1; type: cell-based; settings: for remaining activity at 100 µM: HEK293, in presence of 100 μM compound; for IC50: [^3H]GABA uptake, pIC50±SEM
Experimental: as §1, §2

mGAT2 = target: T3, mGAT2 (Mus musculus, UniProt P31651); experiment: [^3H]GABA uptake assay, HEK293 cells expressing mGAT2; type: cell-based; settings: for remaining activity at 100 µM: HEK293, in presence of 100 μM compound; for IC50: [^3H]GABA uptake, pIC50±SEM
T3 construct: expressed in transfected cells; host or cells: HEK293
T3 sequence (P31651 1-614): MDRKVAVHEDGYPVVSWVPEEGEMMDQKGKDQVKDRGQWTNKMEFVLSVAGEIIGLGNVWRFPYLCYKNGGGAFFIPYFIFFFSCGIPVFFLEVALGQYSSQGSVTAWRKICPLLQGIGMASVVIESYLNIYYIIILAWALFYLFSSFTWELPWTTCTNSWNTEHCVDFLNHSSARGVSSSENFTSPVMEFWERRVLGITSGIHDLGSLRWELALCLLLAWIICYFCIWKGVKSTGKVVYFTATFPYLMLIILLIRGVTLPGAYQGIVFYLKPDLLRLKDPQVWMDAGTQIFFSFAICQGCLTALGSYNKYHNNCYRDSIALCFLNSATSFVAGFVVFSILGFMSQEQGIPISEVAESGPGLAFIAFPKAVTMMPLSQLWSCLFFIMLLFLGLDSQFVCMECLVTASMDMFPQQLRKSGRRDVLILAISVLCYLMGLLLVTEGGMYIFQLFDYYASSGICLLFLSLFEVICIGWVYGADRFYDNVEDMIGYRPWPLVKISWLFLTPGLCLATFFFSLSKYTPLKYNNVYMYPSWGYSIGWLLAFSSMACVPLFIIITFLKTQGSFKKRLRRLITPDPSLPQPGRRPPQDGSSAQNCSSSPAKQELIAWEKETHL
Experimental: as §1, §2

mGAT3 = target: T4, mGAT3 (Mus musculus, UniProt P31649); experiment: [^3H]GABA uptake assay, HEK293 cells expressing mGAT3; type: cell-based; settings: for remaining activity at 100 µM: HEK293, in presence of 100 μM compound; for IC50: [^3H]GABA uptake, pIC50±SEM
T4 construct: expressed in transfected cells; host or cells: HEK293
T4 sequence (P31649 1-602): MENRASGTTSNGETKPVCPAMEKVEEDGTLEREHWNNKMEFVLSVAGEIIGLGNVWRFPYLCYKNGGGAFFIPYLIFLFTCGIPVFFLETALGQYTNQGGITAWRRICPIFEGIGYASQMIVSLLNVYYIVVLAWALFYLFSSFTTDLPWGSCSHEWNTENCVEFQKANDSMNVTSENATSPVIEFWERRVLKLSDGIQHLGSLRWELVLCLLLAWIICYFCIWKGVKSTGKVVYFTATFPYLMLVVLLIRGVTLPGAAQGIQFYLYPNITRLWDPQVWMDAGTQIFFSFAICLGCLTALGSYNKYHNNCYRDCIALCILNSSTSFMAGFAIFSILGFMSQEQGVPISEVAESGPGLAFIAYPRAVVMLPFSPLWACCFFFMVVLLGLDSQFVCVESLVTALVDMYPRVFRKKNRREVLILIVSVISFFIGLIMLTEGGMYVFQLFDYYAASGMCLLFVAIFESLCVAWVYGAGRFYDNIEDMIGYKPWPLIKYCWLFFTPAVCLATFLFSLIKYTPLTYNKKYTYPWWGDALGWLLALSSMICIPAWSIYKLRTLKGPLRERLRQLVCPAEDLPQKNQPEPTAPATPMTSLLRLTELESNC
Experimental: as §1, §2

| IC50 (mGAT4) | remaining activity at 100 µM (mGAT1 [1]) | remaining activity at 100 µM (mGAT1 [2]) | remaining activity at 100 µM (mGAT2) | remaining activity at 100 µM (mGAT3) | IC50 (mGAT1 [2]) | IC50 (mGAT2) | IC50 (mGAT3) | remaining activity at 100 µM (mGAT4; in presence of 100 μM compound) | remaining [^3H]GABA uptake mGAT4 (mGAT4; in presence of 100 μM compound) | Structure (SMILES) |
| --- | --- | --- | --- | --- | --- | --- | --- | --- | --- | --- |
| 13.2 µM | 58.8% | 78.2% | 76% | 69.1% |  |  |  |  |  | COc1ccc(C(OCCN2CCCC(C(=O)O)C2)(c2ccc(CNC3(C(=O)O)CC3)cc2)c2ccc(OC)cc2)cc1 (racemic) [5 p, rac‐ 1‐{2‐[(4‐{[(1‐Carboxycyclopropyl)amino]methyl}phenyl)bis(4‐methoxyphenyl)methoxy]ethyl}piperidine‐3‐carboxylic acid] |
| 64.6 µM | 97% | 76% | 79.7% | 64.2% |  |  |  |  |  | COc1ccc(C(OCCN2CCCC(C(=O)O)C2)(c2ccc(CN3CCCC3=O)cc2)c2ccc(OC)cc2)cc1 (racemic) [5 r, rac‐ 1‐[2‐(Bis{4‐methoxyphenyl}{4‐[(2‐oxopyrrolidin‐1‐yl)methyl]phenyl}‐methoxy)ethyl]piperidine‐3‐carboxylic acid] |
| 21.9 µM | 72.4% |  |  |  | 25.7 µM | 19.1 µM | 23.4 µM |  |  | CCOC(=O)CCNCc1ccc(C(OCCN2CCCC(C(=O)OCC)C2)(c2ccc(OC)cc2)c2ccc(OC)cc2)cc1 (racemic) [12 o, rac ‐Ethyl 1‐{2‐[(4‐{[(3‐ethoxy‐3‐oxopropyl)amino]methyl}phenyl)bis(4‐methoxyphenyl)methoxy]ethyl}piperidine‐3‐carboxylate] |
|  | 93.8% | 75.7% | 73.2% | 95.9% |  |  |  | 94.3% |  | CCOC(=O)C1CCCN(CCOC(c2ccc(OC)cc2)(c2ccc(OC)cc2)c2ccc(S(=O)(=O)N(C)C)cc2)C1 (racemic) [12 c, rac‐ Ethyl 1‐(2‐{[4‐(N,N‐dimethylsulfamoyl)phenyl]bis[4‐methoxyphenyl]‐methoxy}ethyl)piperidine‐3‐carboxylate] |
|  | 54.1% | 99.5% |  | 96% |  |  |  | 50% | 50,0% | COc1ccc(C(OCCN2CCCC(C(=O)O)C2)(c2ccc(CNc3ccc(C(=O)O)cc3)cc2)c2ccc(OC)cc2)cc1 (racemic) [5 t, rac‐ 1‐{2‐[(4‐{[(4‐Carboxyphenyl)amino]methyl}phenyl)bis(4‐methoxy‐phenyl)methoxy]ethyl}piperidine‐3‐carboxylic acid] |
|  | 102% | 52.3% | 73.5% | 49.7% |  |  |  | 63.9% |  | CCOC(=O)C1CCCN(CCOC(c2ccc(CNc3ccc(C(=O)O)cc3)cc2)(c2ccc(OC)cc2)c2ccc(OC)cc2)C1 (racemic) [12 t, rac‐ 4‐{[4‐({2‐[3‐(Ethoxycarbonyl)piperidin‐1‐yl]ethoxy}bis{4‐methoxy‐phenyl}methyl)benzyl]amino}benzoic acid] |
| > 100 µM | 87% | 79.6% | 96.1% | 82.1% |  |  |  | 65.2% |  | COc1ccc(C(OCCN2CCCC(C(=O)O)C2)(c2ccc(OC)cc2)c2ccc(C(N)=O)cc2)cc1 (racemic) [5 j, rac ‐1‐{2‐[(4‐Carbamoylphenyl)bis(4‐methoxyphenyl)methoxy]ethyl}‐piperidine‐3‐carboxylic acid] |
| 3.8 µM | 89.4% | 67.1% | 72.7% |  |  |  | 30.9 µM |  |  | COCc1ccc(C(OCCN2CCCC(C(=O)O)C2)(c2ccc(OC)cc2)c2ccc(OC)cc2)cc1 (racemic) [5 f, rac ‐1‐(2‐{[4‐(Methoxymethyl)phenyl]bis[4‐methoxyphenyl]methoxy}‐ethyl)piperidine‐3‐carboxylic acid] |
| 57.5 µM | 77.2% |  |  |  | 40.7 µM | 13.2 µM | 19.5 µM |  |  | CCOC(=O)C1CCCN(CCOC(c2ccc(OC)cc2)(c2ccc(OC)cc2)c2ccc3nccn3c2)C1 (racemic) [12 d, rac‐ Ethyl 1‐(2‐{imidazo[1,2‐a]pyridin‐6‐ylbis(4‐methoxyphenyl)methoxy}‐ethyl)piperidine‐3‐carboxylate] |
